Calls of active or inactive are those of the source. How the calls were made is not given here.

In this series the test system is rodent carcinogenicity bioassays, tumor incidence. Kind of series: CCRIS carcinogenicity studies. To be noted: Dose: 0, Dose: 0. Summed up:
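Archive of carcinogenicity, mutagenicity, tumor promotion and tumor inhibition results drawn from journals, NCI reports and other sources, expert-reviewed; covers 1985-2011 and is no longer updated.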

Regarding `OCC(CO)(CBr)CBr`, the carcinogen call runs as follows: (Species: GUPPIE, Strain/Sex: MALE, Route: AQUARIUM WATER, 24, 60, 150 MG/L FOR 9 MO THEN IN CLEAN WATER FOR 7 MO (STUDY DURATION: 16 MO), 24, 60, 150 MG/L FOR 9 MO THEN IN CLEAN WATER FOR 7 MO (STUDY DURATION: 16 MO), Tumor Site: Type of Lesion: LIVER: HEPATOCELLULAR ADENOMA OR CARCINOMA) “active; positive”; (Species: GUPPIE, Strain/Sex: MALE, Route: AQUARIUM WATER, 24, 60, 150 MG/L FOR 16 MO (STUDY DURATION: 16 MO), 24, 60, 150 MG/L FOR 16 MO (STUDY DURATION: 16 MO), Tumor Site: Type of Lesion: LIVER: HEPATOCELLULAR ADENOMA OR CARCINOMA) “active; positive; due to mortality, exposure in 150 mg/l group terminated on day 443”; (Species: MEDAKA, Strain/Sex: FEMALE, Route: AQUARIUM WATER, 24, 60, 150 MG/L FOR 14 MO (STUDY DURATION: 14 MO), 24, 60, 150 MG/L FOR 14 MO (STUDY DURATION: 14 MO)) “inactive; negative”; (Species: MEDAKA, Strain/Sex: MALE, Route: AQUARIUM WATER, 24, 60, 150 MG/L FOR 9 MO THEN IN CLEAN WATER FOR 5 MO (STUDY DURATION: 14 MO), 24, 60, 150 MG/L FOR 9 MO THEN IN CLEAN WATER FOR 5 MO (STUDY DURATION: 14 MO), Tumor Site: Type of Lesion: LIVER: HEPATOCELLULAR ADENOMA OR CARCINOMA) “active; positive”; (Species: MEDAKA, Strain/Sex: MALE, Route: AQUARIUM WATER, 24, 60, 150 MG/L FOR 14 MO (STUDY DURATION: 14 MO), 24, 60, 150 MG/L FOR 14 MO (STUDY DURATION: 14 MO), Tumor Site: Type of Lesion: LIVER: HEPATOCELLULAR ADENOMA OR CARCINOMA) “active; positive”; (Species: MOUSE, Strain/Sex: B6C3F1/FEMALE, Route: ORAL, 312, 625, 1250 PPM IN DIET FOR 104-105 WK (STUDY DURATION: 106 WK), 312, 625, 1250 PPM IN DIET FOR 104-105 WK (STUDY DURATION: 106 WK), Tumor Site: Type of Lesion: HARDERIAN GLAND: ADENOMA, CARCINOMA, LUNG: ALVEOLAR/BRONCHIOLAR ADENOMA OR CARCINOMA, SKIN(SUBCUTANEOUS TISSUE): SARCOMA, Tumor Site: Type of Lesion: HARDERIAN GLAND: ADENOMA, CARCINOMA, LUNG: ALVEOLAR/BRONCHIOLAR ADENOMA OR CARCINOMA, SKIN(SUBCUTANEOUS TISSUE): SARCOMA) “active; positive”. The carcinogen call is “active; positive” (Species: MOUSE, Strain/Sex: B63CF1/MALE, Route: ORAL, 312, 625, 1250 PPM IN DIET FOR 104-105 WK (STUDY DURATION: 106 WK), 312, 625, 1250 PPM IN DIET FOR 104-105 WK (STUDY DURATION: 106 WK), Tumor Site: Type of Lesion: HARDERIAN GLAND: ADENOMA, ADENOMA OR CARCINOMA, LUNG: ALVEOLAR/BRONCHIOLAR ADENOMA, ALVEOLAR/BRONCHIOLAR CARCINOMA); “active; positive” (Species: RAT, Strain/Sex: F344/FEMALE, Route: ORAL, 2500, 5000, 10000 PPM IN DIET FOR 104-105 WK (STUDY DURATION: 105 WK), 2500, 5000, 10000 PPM IN DIET FOR 104-105 WK (STUDY DURATION: 105 WK), Tumor Site: Type of Lesion: ESOPHAGUS: SQUAMOUS CELL PAPILLOMA, MAMMARY GLAND: FIBROADENOMA, ORAL CAVITY: SQUAMOUS CELL PAPILLOMA OR SQUAMOUS CELL C, Tumor Site: Type of Lesion: ESOPHAGUS: SQUAMOUS CELL PAPILLOMA, MAMMARY GLAND: FIBROADENOMA, ORAL CAVITY: SQUAMOUS CELL PAPILLOMA OR SQUAMOUS CELL C); “active; positive” (Species: RAT, Strain/Sex: F344/MALE, Route: ORAL, 2500, 5000, 10000 PPM IN DIET FOR 104-105 WK (STUDY DURATION: 105 WK), 2500, 5000, 10000 PPM IN DIET FOR 104-105 WK (STUDY DURATION: 105 WK), Tumor Site: Type of Lesion: ESOPHAGUS: SQUAMOUS CELL PAPILLOMA, LARGE INTESTINE: ADENOMATOUS POLYP, MAMMARY GLAND: FIBROADENOMA, FIBROADENOMA OR ADE, Tumor Site: Type of Lesion: ESOPHAGUS: SQUAMOUS CELL PAPILLOMA, LARGE INTESTINE: ADENOMATOUS POLYP, MAMMARY GLAND: FIBROADENOMA, FIBROADENOMA OR ADE); “active; positive” (Species: RAT, Strain/Sex: F344/MALE, Route: ORAL, 20000 PPM IN DIET FOR 3 MO FOLLOWED BY NORMAL DIET FOR 21 MO (STUDY DURATION: 2 YR), Tumor Site: Type of Lesion: LARGE INTESTINE: ADENOMATOUS POLYP, LUNG: ALVEOLAR/BRONCHIOLAR ADENOMA OR CARCINOMA, MAMMARY GLAND: FIBROADENOMA, ORAL C, Tumor Site: Type of Lesion: LARGE INTESTINE: ADENOMATOUS POLYP, LUNG: ALVEOLAR/BRONCHIOLAR ADENOMA OR CARCINOMA, MAMMARY GLAND: FIBROADENOMA, ORAL C).

Turning to `CCC(=O)N(O)c1ccc(/C=C/c2ccccc2)cc1`, the carcinogen call (Species: RAT, Strain/Sex: STRAIN-CD/FEMALE, Route: INTRAPERITONEAL, 10 UMOL/KG BW 2/WK FOR 6 WK (STUDY DURATION: 62 WK), Tumor Site: Type of Lesion: LIVER: NEOPLASTIC NODULE, MAMMARY GLAND: TUMOR, EAR DUCT: TUMOR, PITUITARY GLAND: CARCINOMA, Tumor Site: Type of Lesion: LIVER: NEOPLASTIC NODULE, MAMMARY GLAND: TUMOR, EAR DUCT: TUMOR, PITUITARY GLAND: CARCINOMA) is “active; positive” and the carcinogen call (Species: RAT, Strain/Sex: STRAIN-CD/MALE, Route: INTRAPERITONEAL, 10 UMOL/KG BW 2/WK FOR 6 WK (STUDY DURATION: 62 WK), Tumor Site: Type of Lesion: TESTICLE: MESOTHELIOMA, PANCREAS(ACINUS): ADENOMA, PANCREAS(ISLET CELL): CARCINOMA, EAR DUCT: ADENOMA, CARCINOMA, LIVER:, Tumor Site: Type of Lesion: TESTICLE: MESOTHELIOMA, PANCREAS(ACINUS): ADENOMA, PANCREAS(ISLET CELL): CARCINOMA, EAR DUCT: ADENOMA, CARCINOMA, LIVER:) is “active; positive”.

Take `CC(C)NCCCC1(C(N)=O)c2ccccc2-c2ccccc21`: the carcinogen call is, setting by setting: (Species: MOUSE, Strain/Sex: B6C3F1/FEMALE, Route: ORAL, 0.02, 0.04, 0.08% IN DIET FOR APPROXIMATE DAILY DOSES OF 0, 27, 53, 113 MG/KG (STUDY DURATION: 2 YR), 0.02, 0.04, 0.08% IN DIET FOR APPROXIMATE DAILY DOSES OF 0, 27, 53, 113 MG/KG (STUDY DURATION: 2 YR)) “inactive; negative”; (Species: MOUSE, Strain/Sex: B6C3F1/MALE, Route: ORAL, 0.02, 0.04, 0.08% IN DIET FOR APPROXIMATE DAILY DOSES OF 0, 27, 53, 113 MG/KG (STUDY DURATION: 2 YR), 0.02, 0.04, 0.08% IN DIET FOR APPROXIMATE DAILY DOSES OF 0, 27, 53, 113 MG/KG (STUDY DURATION: 2 YR)) “inactive; negative”; (Species: RAT, Strain/Sex: F344/FEMALE, Route: ORAL, 0.02, 0.04, 0.08% IN DIET FOR APPROXIMATE DAILY DOSES OF 0, 9, 18, 37 MG/KG (STUDY DURATION: 2 YR), 0.02, 0.04, 0.08% IN DIET FOR APPROXIMATE DAILY DOSES OF 0, 9, 18, 37 MG/KG (STUDY DURATION: 2 YR)) “inactive; negative”; (Species: RAT, Strain/Sex: F344/MALE, Route: ORAL, 0.02, 0.04, 0.08% IN DIET FOR APPROXIMATE DAILY DOSES OF 0, 9, 18, 37 MG/KG (STUDY DURATION: 2 YR), 0.02, 0.04, 0.08% IN DIET FOR APPROXIMATE DAILY DOSES OF 0, 9, 18, 37 MG/KG (STUDY DURATION: 2 YR)) “inactive; negative”.

These data come from PubChem BioAssay AID1259411 (Chemical Carcinogenesis Research Information System (CCRIS), 2018).
